Assay results from US20130225694A1, “COMPOSITIONS AND METHODS OF INHIBITING RETINAL DEGENERATION” (Oklahoma Medical Research Foundation, priority 2012, published 2013).
pIC50: −log10 of the molar value. Read-outs that look alike come from different tables or passages of the source.

Key:
Rat Retina = assay: Light-induced retinal degeneration in rats, systemic (IP) nitrone; ERG and ONL histology; details: for A-Wave value at 4 cd·sec/m^2 / B-Wave value at 4 cd·sec/m^2 / A-Wave value at 400 cd·sec/m^2 / B-Wave value at 400 cd·sec/m^2 / % Protection (A-Wave at 4 cd·sec/m^2) / % Protection (A-Wave at 400 cd·sec/m^2) / % Protection (B-Wave at 4 cd·sec/m^2) / % Protection (B-Wave at 400 cd·sec/m^2) / ONL Thickness (μm) Inferior retina / ONL Thickness (μm) Superior retina: 50 mg/kg IP 0.5 h before 2,700 lux 6 h; for A-Wave value at 4 cd·sec/m^2 / B-Wave value at 4 cd·sec/m^2: ERG flash 4.0 cd·sec/m^2 (mostly rod function); for A-Wave value at 400 cd·sec/m^2 / B-Wave value at 400 cd·sec/m^2: ERG flash 400.0 cd·sec/m^2 (rod and cone function); for % Protection (A-Wave at 4 cd·sec/m^2) / % Protection (A-Wave at 400 cd·sec/m^2) / % Protection (B-Wave at 4 cd·sec/m^2) / % Protection (B-Wave at 400 cd·sec/m^2) / % Protection (ONL, Inferior retina) / % Protection (ONL, Superior retina): NLD = 100, Saline LD = 0; for ONL Thickness (μm) Inferior retina / ONL Thickness (μm) Superior retina: histology; for protection of retinal function (ERG A- and B-wave) / protective effect on retinal photoreceptors compared with PBN: 50 mg/kg IP; for protection of retinal function (ERG A- and B-wave): FIGS. 11-12; for protective effect on retinal photoreceptors compared with PBN: ONL histology (FIGS. 14-16)
Method: Consistent with previous publications (1-2,5), a dose of 50 mg/kg PBN and S-PBN dissolved in saline was chosen for intraperitoneal injection in the rats in the treatment group. An equal volume of saline was injected into control rats.
A light-stress paradigm of 2,700 lux for 6 hours was used to test the effect of PBN at different time points before (0.5 hour, 3 hours, 6 hours, 12 hours, 16 hours, and 24 hours) or after (0.5 hour and 3 hours) light exposure. The effect of S-PBN was tested using the same dose and protocol of PBN at 0.5 hours before light exposure.
Electroretinography—After light exposure, rats were returned to their dim cyclic light (5-10 lux) environment for 7 days before ERG recordings were performed. Flash ERGs were recorded with the Diagnosys Espion E2 ERG System (Diagnosys, LLC, Lowell, Mass.). Rats were maintained in total darkness overnight and prepared for ERG recording under dim red light. They were anesthetized with ketamine (120 mg/kg body weight) and xylazine (6 mg/kg body weight) intramuscularly (IM). One drop of 10% (v/v) phenylephrine was applied to the cornea to dilate the pupil, and one drop of 0.5% (v/v) proparacaine HCl was applied for local anesthesia. Rats were kept on a heating pad at 37° C. during recordings. A gold electrode was placed on the cornea, a reference electrode was positioned in the mouth, and a ground electrode was placed on the foot; rats were then placed inside a Ganzfeld illuminating sphere. Responses were differentially amplified, averaged, and stored. For the assessment of rod photoreceptor function (scotopic ERG), five strobe flash stimuli were presented at flash intensities at −2.3, −1.3, 0.7, and 2.7 log cd·s/m^2. The amplitude of the a-wave was measured from the pre-stimulus baseline to the a-wave trough. The amplitude of the b-wave was measured from the trough of the a-wave to the peak of the b-wave. For the evaluation of cone function (photopic ERG), a strobe flash stimulus (3.3 log cd·s/m^2) was presented to dilated, light-adapted (5 minutes at 1.7 log cd·s/m^2) rats. The amplitude of the cone b-wave was measured from the trough of the a-wave to the peak of the b-wave.
Histology—After ERG recordings, rats were killed by carbon dioxide asphyxiation for light microscopic evaluation of retinal structure. Immediately after death, eyes were excised, placed in fixative (4% (w/v) paraformaldehyde, 2% (v/v) trichloroacetic acid, 20% (v/v) isopropyl alcohol, 2% (v/v) zinc chloride, and 72% (v/v) distilled water), and embedded in paraffin. Sections of 5 μm were cut along the vertical meridian through the optic nerve and stained with hematoxylin and eosin (H&E).
The PBN derivatives were injected intraperitoneally (IP) into albino SD rats at 50 mg/kg body weight at 0.5 hours before the start of light-damage exposure at 2,700 lux for 6 hours. After the exposure, the rats were moved to their dim cyclic room to recover for a week. Retinal damage/protection was assessed by functional analysis by ERG and structural analysis of histological sections. Dark adapted (12 hour) and Light adapted (for 2 hour) retinas were utilized as controls.

RPE65 isomerohydrolase = molecular target: T1, RPE65 isomerohydrolase (Bos taurus, UniProt Q28175); assay: In vitro RPE65 isomerohydrolase assay with bovine RPE microsomes (Example 3); type: biochemical; details: for RPE65 inhibition compared with PBN: summary of Table 1
T1 construct: Bovine RPE microsomes were used as a source of the RPE65 protein; from tissue; host or cells: bovine RPE microsomes
Description: In this Example, the effect of several PBN analogs on RPE65 isomerohydrolase activity was investigated in an in vitro assay. The chemical structures of the PBN analogs utilized are described herein above. Bovine RPE microsomes were used as a source of the RPE65 protein and all-trans-[^3H] retinol was a substrate for the isomerohydrolase assay. The produced 11-cis-[^3H] retinol was quantified by normal phase HPLC with flow scintillation analyzer. The inhibition of isomerohydrolase activity was dependent on the PBN analog's concentration.
FIG. 9 also illustrates the calculation of IC50 values for the two difluoro-PBN analogs. IC50 values are the concentration of the inhibitor that inhibits 50% of the enzymatic activity. Therefore, the smaller the IC50 value, the better the drug.

rhodopsin [1] = assay: Rhodopsin regeneration after bleach in rats, IP nitrone; type: in vivo, rat; details: Rattus norvegicus; rats, 50 mg/kg IP, 2 h room light then 2.5 h dark adaptation
Method: FIG. 10 graphically illustrates the effects of three PBN analogs of rhodopsin regeneration. Rhodopsin content was measured as nmole/retina following the procedure as in Mandal et al. (J Biol. Chem. 2011. 286 (37):32491-501). After injection with PBN derivatives or vehicles (saline), rats were left in room light for 2 hours (light adapted or LA) and then moved to dark. At 2.5 hours dark adaptation (DA), retinas were harvested. DA-Control, Dark adapted (12 h) control retina without any treatment to show normal rhodopsin content.
Measurement of rhodopsin regeneration—To measure the effect of PBN on the rate of rhodopsin regeneration, dark-adapted rats were injected intraperitoneally with PBN (50 mg/kg) or PBS 0.5 hour prior to a 2 hour bleach in room light (˜400 lux). Immediately following the bleach (time=0 minutes), a group of PBN- and vehicle-treated rats were killed, and retinas were removed and snap frozen. The remaining rats were dark-adapted, and retinas were collected under dim red light at 45, 90, and 180 minutes after the bleach.
Rhodopsin measurements were performed as described previously (2,36) with slight modification. Briefly, under dim red light, each retina was homogenized in 450 μl of buffer containing 10 mM Tris-HCl (pH 7.4), 150 mM NaCl, 1 mM EDTA, 2% (w/v) octylglucoside, and 50 mM hydroxylamine. Homogenates were centrifuged at 16,000 g, and soluble lysates were scanned from 270-800 nm in a spectrophotometer (Ultrospec 3000 UV/Vis Spectrophotometer, GE Healthcare, Piscataway, N.J.). Samples were then bleached under room light for 10 minutes and scanned again. The difference spectra at 500 nm between pre- and post-bleached samples were used to determine rhodopsin content using a molar extinction coefficient of […] (37). The values were normalized to the total lysate volume, and data are presented as rhodopsin content/retina.

rhodopsin [2] = assay: Rhodopsin regeneration after topical eye drops in mice; type: in vivo, Balb/c mice; details: for % of Rhodopsin recovery: 5% in eye drop at 6, 3 and 0 h before dark adaptation, LA + 1 h DA, DA control = 100; for inhibition of rhodopsin regeneration as eye drop: eye drop formulation, summary of Table 7
Method: Panel A: Application scheme and harvesting of the eye. 3 h group received 2 applications and 6 h group received 3 applications. Panel B: Rhodopsin content was measured as pmole/eye. In 1 h in the dark, untreated eyes (NT-LA 1 h DA, no treatment-light adapted followed by 1 hour dark adaptation) and vehicle-treated eyes recovered 75-80% rhodopsin [dark-adapted (DA) control is 100%], whereas 3 h PBN recovered only 43% and 6 h PBN only 29%. (***P<0.0001 compared to vehicle, n=8; ##p<0.005 between 3 h and 6 h group, n=8).
An eye drop formulation was used with various absorption enhancers for topical application of PBN to mouse eyes. […] One hour dark adaptation followed by light causes 75-80% recovery of bleachable rhodopsin in the Balb/c mice (FIG. 18B, NT-LA 1 h DA). The eye drop without PBN (vehicle) had no effect on rhodopsin regeneration (FIG. 18B, vehicle).
Eye drop formulations were prepared as described in Example 7 and contained 5% or 10% of a PBN derivative. The eye drop formulations were applied to Balb/c mice by the 6 h group application scheme shown in FIG. 18A, in which the eye drops were applied at 6, 3, and 0 h before dark adaptation. The eye drops were applied to completely light-adapted mouse eyes, and the mice were then moved to the dark for 1 h to allow the regeneration of bleachable rhodopsin. One hour dark adaptation followed by light causes […] recovery of bleachable rhodopsin in untreated mice (00, No Treatment). The eye drop without any nitrones (vehicle) had no effect on rhodopsin regeneration (000, vehicle).

[3] = apparent IC50, bovine RPE microsomes, all-trans-[3H] retinol substrate (Table 1), read-out: IC50 Values for the Inhibition of RPE65 Isomerohydrolase Reaction
[4] = in vitro RPE65 isomerohydrolase IC50 values repeated in Table 7, read-out: IC50

T1 sequence (Q28175 whole entry): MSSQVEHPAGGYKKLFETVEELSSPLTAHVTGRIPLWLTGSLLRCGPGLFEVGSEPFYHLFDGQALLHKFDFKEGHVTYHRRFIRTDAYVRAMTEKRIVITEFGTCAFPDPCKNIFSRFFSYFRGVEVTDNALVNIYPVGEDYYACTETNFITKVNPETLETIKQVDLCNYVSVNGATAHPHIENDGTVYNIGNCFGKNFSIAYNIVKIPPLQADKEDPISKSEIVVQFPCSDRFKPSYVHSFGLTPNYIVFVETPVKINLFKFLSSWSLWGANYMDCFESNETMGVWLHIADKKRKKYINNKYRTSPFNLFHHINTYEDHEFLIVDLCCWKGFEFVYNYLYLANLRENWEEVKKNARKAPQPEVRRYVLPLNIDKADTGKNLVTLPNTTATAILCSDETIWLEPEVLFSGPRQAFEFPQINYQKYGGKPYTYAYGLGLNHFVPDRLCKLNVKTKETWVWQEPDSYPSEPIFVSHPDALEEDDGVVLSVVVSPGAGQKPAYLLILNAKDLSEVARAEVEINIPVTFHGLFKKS

| SMILES | A-Wave value at 4 cd·sec/m^2 (Rat Retina) | B-Wave value at 4 cd·sec/m^2 (Rat Retina) | A-Wave value at 400 cd·sec/m^2 (Rat Retina) | B-Wave value at 400 cd·sec/m^2 (Rat Retina) | % Protection (A-Wave at 4 cd·sec/m^2) (Rat Retina) [%] | % Protection (A-Wave at 400 cd·sec/m^2) (Rat Retina) [%] | % Protection (B-Wave at 4 cd·sec/m^2) (Rat Retina) [%] | % Protection (B-Wave at 400 cd·sec/m^2) (Rat Retina) [%] | ONL Thickness (μm) Inferior retina (Rat Retina) [μm] | ONL Thickness (μm) Superior retina (Rat Retina) [μm] | protection of retinal function (ERG A- and B-wave) (Rat Retina) | protective effect on retinal photoreceptors compared with PBN (Rat Retina) | % Protection (ONL, Inferior retina) (Rat Retina) [%] | % Protection (ONL, Superior retina) (Rat Retina) [%] | pIC50 (RPE65 isomerohydrolase; [3]) | pIC50 (RPE65 isomerohydrolase; [4]) | RPE65 inhibition compared with PBN (RPE65 isomerohydrolase) | inhibition at 50 mg/kg (rhodopsin [1]) [%] | % of Rhodopsin recovery (rhodopsin [2]) [%] | inhibition of rhodopsin regeneration as eye drop (rhodopsin [2]) |
| --- | --- | --- | --- | --- | --- | --- | --- | --- | --- | --- | --- | --- | --- | --- | --- | --- | --- | --- | --- | --- |
| CC(C)(C)/[N+]([O-])=C/c1ccc(C(F)(F)F)cc1 [Compound 3, 4-Trifluoromethylphenyl t-butyl nitrone] | 148.1 | 478.7 | 234.7 | 560.0 | 80.4 | 79.7 | 64.9 | 71.2 | 39.8 ± 1.1 | 36.8 ± 1.4 | protected retinal function significantly | comparable to that of PBN | 91.6 | 83.1 | 4.22 | 4.22 | more effective at inhibiting RPE65 activity than the native PBN molecule | 82 | 52.80 | more effective in inhibiting rhodopsin regeneration than PBN |
| CC(C)(C)/[N+]([O-])=C/c1ccc(F)c(F)c1 [Compound 10, 3,4-Difluorophenyl t-butyl nitrone] | – | – | – | – | – | – | – | – | – | – | – | – | – | – | 4.30 | 4.30 | more effective at inhibiting RPE65 activity than the native PBN molecule | – | 39.31 | more effective in inhibiting rhodopsin regeneration than PBN |
| COc1ccc(/C=[N+](\[O-])C(C)(C)C)cc1 [Compound 5, 4-Methoxyphenyl t-butyl nitrone] | – | – | – | – | – | – | – | – | – | – | – | – | – | – | 3.30 | 3.30 | – | – | 79.10 | – |
| CC(C)(C)/[N+]([O-])=C/c1ccccc1F [Compound 7, 2-Fluorophenyl t-butyl nitrone] | – | – | – | – | – | – | – | – | – | – | – | – | – | – | 2.89 | 2.89 | – | – | – | – |
| CCOc1ccc(/C=[N+](\[O-])C(C)(C)C)cc1 [Compound 6, 4-Ethoxyphenyl t-butyl nitrone] | – | – | – | – | – | – | – | – | – | – | – | – | – | – | < 2.70 | < 2.70 | – | – | 81.99 | – |
| CC(C)(C)/[N+]([O-])=C/c1cc(F)cc(F)c1 [Compound 9, 3,5-Difluorophenyl t-butyl nitrone] | – | – | – | – | – | – | – | – | – | – | – | – | – | – | 3.30 | 3.30 | – | – | – | – |
| CC(C)(C)/[N+]([O-])=C/c1ccc(F)cc1 [Compound 2, 4-Fluorophenyl t-butyl nitrone] | 163.0 | 572.4 | 295.7 | 762.6 | 90.4 | 102.3 | 79.5 | 99.8 | 42.4 ± 1.3 | 42.0 ± 1.4 | protected retinal function significantly | comparable to PBN, and even appears to provide more protection than PBN | 100 | 96.2 | 4.22 | 4.22 | more effective at inhibiting RPE65 activity than the native PBN molecule | 88 | 81.15 | not effective at inhibiting rhodopsin regeneration |
| CC(C)(C)/[N+]([O-])=C/c1cccc(F)c1 [Compound 8, 3-Fluorophenyl t-butyl nitrone] | – | – | – | – | – | – | – | – | – | – | – | – | – | – | 3.55 | 3.55 | – | – | – | – |
